Like-named read-outs stand apart in the source and are kept apart here.
Legend:
[1] = system: NCI 60 cell lines; test: NCI one-dose assay, full panel; format: cell-based, human; conditions: Homo sapiens, 60 cell, read-out: cell growth inhibition percentage, range
[2] = system: NCI-H522; test: NCI five-dose assay; format: cell-based, human; conditions: for CC50 / GI50: Homo sapiens; for CC50: read-out: LC50 (the source's name); for GI50: read-out: GI50 Conc. per Cell Lines
[3] = system: MDA/MB-231-ATCC; test: NCI five-dose assay; format: cell-based, human; conditions: for LC50 / GI50: Homo sapiens; for GI50: read-out: GI50 Conc. per Cell Lines
[4] = system: NCI-H23; test: NCI five-dose assay; format: cell-based, human; conditions: for CC50 / GI50: Homo sapiens; for CC50: read-out: LC50 (the source's name); for GI50: read-out: GI50 Conc. per Cell Lines
[5] = system: 786-0; test: NCI five-dose assay; format: cell-based, human; conditions: for LC50 (50% lethal concentration) / GI50: Homo sapiens; for GI50: read-out: GI50 Conc. per Cell Lines
[6] = system: PC-3; test: NCI five-dose assay; format: cell-based, human; conditions: for CC50 / GI50: Homo sapiens; for CC50: read-out: LC50 (the source's name); for GI50: read-out: GI50 Conc. per Cell Lines
[7] = system: MDA-MB-468; test: NCI one-dose assay; format: cell-based; conditions: Homo sapiens, MDA-MB-468, Breast cancer, read-out: Cell growth inhibition %
[8] = system: A549/ATCC; test: NCI one-dose assay; format: cell-based; conditions: Homo sapiens, Non-small cell lung cancer, read-out: Cell growth inhibition %
[9] = system: LOX IMVI; test: NCI one-dose assay; format: cell-based; conditions: Homo sapiens, Melanoma, read-out: Cell growth inhibition %
[10] = system: SR; test: NCI one-dose assay; format: cell-based; conditions: Homo sapiens, Leukemia, read-out: Cell growth inhibition %
[11] = system: HS 578 T; test: NCI one-dose assay; format: cell-based; conditions: Homo sapiens, Breast cancer, read-out: Cell growth inhibition %
[12] = system: MDA-MB-435; test: NCI one-dose assay; format: cell-based; conditions: Homo sapiens, MDA-MB-435, Melanoma, read-out: Cell growth inhibition %
[13] = system: SF-295; test: NCI one-dose assay; format: cell-based; conditions: Homo sapiens, SF-295, CNS cancer, read-out: Cell growth inhibition %
[14] = system: OVCAR-8; test: NCI one-dose assay; format: cell-based; conditions: Homo sapiens, OVCAR-8, Ovarian cancer, read-out: Cell growth inhibition %
[15] = system: SF-539; test: NCI one-dose assay; format: cell-based; conditions: Homo sapiens, SF-539, CNS cancer, read-out: Cell growth inhibition %
[16] = system: MDA-MB-231/ATCC; test: NCI one-dose assay; format: cell-based; conditions: Homo sapiens, Breast cancer, read-out: Cell growth inhibition %
[17] = system: UACC-62; test: NCI one-dose assay; format: cell-based; conditions: Homo sapiens, UACC-62, Melanoma, read-out: Cell growth inhibition %
[18] = system: BT-549; test: NCI one-dose assay; format: cell-based; conditions: Homo sapiens, BT-549, Breast cancer, read-out: Cell growth inhibition %
[19] = system: SF-268; test: NCI one-dose assay; format: cell-based; conditions: Homo sapiens, SF-268, CNS cancer, read-out: Cell growth inhibition %
[20] = system: EKVX; test: NCI one-dose assay; format: cell-based; conditions: Homo sapiens, Non-small cell lung cancer, read-out: Cell growth inhibition %
[21] = system: NCI/ADR-RES; test: NCI one-dose assay; format: cell-based; conditions: Homo sapiens, Ovarian cancer, read-out: Cell growth inhibition %
[22] = system: MOLT-4; test: NCI one-dose assay; format: cell-based; conditions: Homo sapiens, MOLT-4, Leukemia, read-out: Cell growth inhibition %
[23] = system: IGROV1; test: NCI one-dose assay; format: cell-based; conditions: Homo sapiens, IGROV-1, IGROV1, Ovarian cancer, read-out: Cell growth inhibition %
[24] = system: HCT-15; test: NCI one-dose assay; format: cell-based; conditions: Homo sapiens, HCT-15, Colon cancer, read-out: Cell growth inhibition %
[25] = system: SK-OV-3; test: NCI one-dose assay; format: cell-based; conditions: Homo sapiens, SK-OV-3, Ovarian cancer, read-out: Cell growth inhibition %
[26] = system: HT29; test: NCI one-dose assay; format: cell-based; conditions: Homo sapiens, HT-29, HT29, Colon cancer, read-out: Cell growth inhibition %
[27] = system: M14; test: NCI one-dose assay; format: cell-based; conditions: Homo sapiens, M14, Melanoma, read-out: Cell growth inhibition %
[28] = system: NCI-H460; test: NCI one-dose assay; format: cell-based; conditions: Homo sapiens, NCI-H460, Non-small cell lung cancer, read-out: Cell growth inhibition %
[29] = system: SK-MEL-5; test: NCI one-dose assay; format: cell-based; conditions: Homo sapiens, SK-MEL-5, Melanoma, read-out: Cell growth inhibition %
[30] = system: A498; test: NCI one-dose assay; format: cell-based, human; conditions: for inhibition at 10 µM: Homo sapiens, A498, A498, Renal cancer, read-out: Cell growth inhibition %
[31] = system: BT-549; test: NCI five-dose assay; format: cell-based, human; conditions: for CC50 / GI50: Homo sapiens; for CC50: read-out: LC50 (the source's name); for GI50: read-out: GI50 Conc. per Cell Lines
[32] = NCI-H522, Non-small cell lung cancer
[33] = NCI-H23, Non-small cell lung cancer

O/N=C(\CSc1nnc(-c2c[nH]c3ccccc23)n1-c1ccccc1)c1ccc(Br)cc1 [Compound 7i, (Z)-2-((5-(1H-Indol-3-yl)-4-phenyl-4H-1,2,4-triazol-3-yl)thio)-1-(4-bromophenyl) Ethanone Oxime]
inhibition at 10 µM ([1]; eight cell lines): 86 to 99%
inhibition at 10 µM ([1]; forty-nine cell lines with complete cell death): 106 to 200%
CC50 ([2]; NCI-H522, Non-small cell lung cancer, 48 h): 61.6 µM
GI50 [2, 32]: 2.52 µM
TGI Conc. per Cell Lines [2, 32]: 7.70 µM
TGI Conc. per Cell Lines ([3]; Breast cancer): 3.26 µM
LC50 ([3]; Breast cancer, 48 h): 6.21 µM
GI50 ([3]; Breast cancer): 1.71 µM
CC50 ([4]; NCI-H23, Non-small cell lung cancer, 48 h): 84.3 µM
GI50 [4, 33]: 4.31 µM
TGI Conc. per Cell Lines [4, 33]: 19.60 µM
TGI Conc. per Cell Lines ([5]; 786-0, Renal cancer): 27.00 µM
LC50 (50% lethal concentration) ([5]; 786-0, Renal cancer, 48 h): 93.4 µM
GI50 ([5]; 786-0, Renal cancer): 6.85 µM
CC50 ([6]; PC-3, Prostate cancer, 48 h): > 100 µM
GI50 ([6]; PC-3, Prostate cancer): 2.15 µM
TGI Conc. per Cell Lines ([6]; PC-3, Prostate cancer): 4.96 µM
inhibition at 10 µM [7]: 195%
inhibition at 10 µM [8]: 118%
inhibition at 10 µM [9]: 187%
inhibition at 10 µM [10]: 98.7%
inhibition at 10 µM [11]: 139%
inhibition at 10 µM [12]: 200%
inhibition at 10 µM [13]: 115%
inhibition at 10 µM [14]: 142%
inhibition at 10 µM [15]: 165%
inhibition at 10 µM [16]: 184%
inhibition at 10 µM [17]: 190%
inhibition at 10 µM [18]: 173%
inhibition at 10 µM [19]: 156%
inhibition at 10 µM [20]: 163%
inhibition at 10 µM [21]: 174%
inhibition at 10 µM [22]: 119%
inhibition at 10 µM [23]: 165%
inhibition at 10 µM [24]: 193%
inhibition at 10 µM [25]: 150%
inhibition at 10 µM [26]: 177%
inhibition at 10 µM [27]: 168%
inhibition at 10 µM [28]: 122%
inhibition at 10 µM [29]: 124%
Cell growth inhibition % ([30]; A498, Renal cancer, 10 µM): 37.85%
inhibition at 10 µM [30]: 38%
TGI Conc. per Cell Lines ([31]; BT-549, Breast cancer): 7.25 µM
CC50 ([31]; BT-549, Breast cancer, 48 h): 34.2 µM
GI50 ([31]; BT-549, Breast cancer): 3.16 µM

O/N=C(\CSc1nnc(-c2c[nH]c3ccccc23)n1-c1ccccc1)c1ccc(Cl)cc1 [Compound 7j, (Z)-2-((5-(1H-Indol-3-yl)-4-phenyl-4H-1,2,4-triazol-3-yl)thio)-1-(4-chlorophenyl) Ethanone Oxime]
inhibition at 10 µM ([1]; six cell lines with moderate activity): 52 to 66%
inhibition at 10 µM ([1]; twenty-eight cell lines with total cell death): 102 to 200%
inhibition at 10 µM ([1]; twenty-four cell lines): 69.5 to 99.3%
GI50 ([2]; NCI-H522, five dose levels): 3.11 µM
CC50 ([2]; NCI-H522, five dose levels): 81.7 µM
TGI Conc. per Cell Lines ([2]; NCI-H522, five dose levels): 12.5 µM
LC50 ([3]; five dose levels): > 100 µM
GI50 ([3]; five dose levels): 1.87 µM
TGI Conc. per Cell Lines ([3]; five dose levels): 3.66 µM
GI50 ([4]; NCI-H23, five dose levels): 6.52 µM
CC50 ([4]; NCI-H23, five dose levels): > 100 µM
TGI Conc. per Cell Lines ([4]; NCI-H23, five dose levels): >100 µM
TGI Conc. per Cell Lines ([5]; 786-0, five dose levels): >100 µM
LC50 (50% lethal concentration) ([5]; 786-0, five dose levels): 93.5 µM
GI50 ([5]; 786-0, five dose levels): 7.29 µM
GI50 ([6]; PC-3, five dose levels): 2.31 µM
CC50 ([6]; PC-3, five dose levels): > 100 µM
TGI Conc. per Cell Lines ([6]; PC-3, five dose levels): 7.29 µM
inhibition at 10 µM [7]: 185%
inhibition at 10 µM [8]: 78.5%
inhibition at 10 µM [9]: 189%
inhibition at 10 µM [10]: 87.2%
inhibition at 10 µM [11]: 132%
inhibition at 10 µM [12]: 200%
inhibition at 10 µM [13]: 85.9%
inhibition at 10 µM [14]: 93.6%
inhibition at 10 µM [15]: 70.5%
inhibition at 10 µM [16]: 155%
inhibition at 10 µM [17]: 143%
inhibition at 10 µM [18]: 167%
inhibition at 10 µM [19]: 149%
inhibition at 10 µM [20]: 98%
inhibition at 10 µM [21]: 170%
inhibition at 10 µM [22]: 107%
inhibition at 10 µM [23]: 134%
inhibition at 10 µM [24]: 148%
inhibition at 10 µM [25]: 102%
inhibition at 10 µM [26]: 95.5%
inhibition at 10 µM [27]: 147%
inhibition at 10 µM [28]: 89.5%
inhibition at 10 µM [29]: 78.8%
inhibition at 10 µM [30]: 16.3%
TGI Conc. per Cell Lines ([31]; BT-549, five dose levels): 11.1 µM
GI50 ([31]; BT-549, five dose levels): 3.71 µM
CC50 ([31]; BT-549, five dose levels): 6.28 µM
